Assay results taken from US10561748B2, “Anthranilic acid derivatives” (priority 2014, dated 2020).
Where two headings read alike, the source gives them in different places.

Tests used:
P-gp [1] = test: Apparent permeability in Caco-2 cells (BA/AB); format: in vitro ADME; settings: human, BA/AB >2 = transported by P-gp, read-out: Apparent Permeability (B→A/A→B)
Procedure: Ligands displaying BA/AB >2 are transported while ligands having BA/AB <2 are not transported by P-gp.
Caco-2 cells were seeded onto a Millicell assay system (Millipore), where a cell monolayer is set in between a filter cell and a receiver plate, at a density of 10,000 cells/well. The culture medium was replaced every 48 h and the cells kept for 21 days in culture. The Trans Epithelial Electrical Resistance (TEER) of the monolayers was measured daily, before and after the experiment, using an epithelial voltohometer (Millicell-ERS). Generally, TEER values greater than 1000× for a 21 day culture, are considered optimal. Caco-2 cells were seeded onto a Millicell assay system (Millipore), where a cell monolayer is set in between a filter cell and a receiver plate, at a density of 10,000 cells/well. The culture medium was replaced every 48 h and the cells kept for 21 days in culture. The Trans Epithelial Electrical Resistance (TEER) of the monolayers was measured daily, before and after the experiment, using an epithelial voltohometer (Millicell-ERS). Generally, TEER values greater than 1000× for a 21 day culture, are considered. After 21 days of Caco-2 cell growth, the medium was removed from filter wells and from the receiver plate, which were filled with fresh MSS buffer (Invitrogen). […] The apparent permeability (Papp), in units of nm/s, was calculated.

MDCK-MDR1 = test: Cytotoxicity, MTT assay; format: cell-based; settings: 100 microM
Procedure: Determination of cell growth was performed using the MTT assay at 24 and 48 h. On day 1, 30,000 cells/well were seeded into96-well plates in a volume of 100 μL. On day 2, the various drugs concentration (0.1-100 μM) were added. In all the experiments, the various drug-solvents (ethanol, DMSO) were added in each control to evaluate a possible solvent cytotoxicity. After the established incubation time with compound of Formula 1a, MTT(0.5 mg/mL) was added to each well, and after 3 h incubation at 37° C., the supernatant was removed.

BCRP = target: T1, BCRP (Homo sapiens, UniProt Q9UNQ0); test: Activity in MDCK-BCRP cells, fluorescent probe Rhodamine; format: cell-based
T1 construct: expressed in transfected cells; host or cells: MDCK-BCRP
T1 sequence (Q9UNQ0 1-655): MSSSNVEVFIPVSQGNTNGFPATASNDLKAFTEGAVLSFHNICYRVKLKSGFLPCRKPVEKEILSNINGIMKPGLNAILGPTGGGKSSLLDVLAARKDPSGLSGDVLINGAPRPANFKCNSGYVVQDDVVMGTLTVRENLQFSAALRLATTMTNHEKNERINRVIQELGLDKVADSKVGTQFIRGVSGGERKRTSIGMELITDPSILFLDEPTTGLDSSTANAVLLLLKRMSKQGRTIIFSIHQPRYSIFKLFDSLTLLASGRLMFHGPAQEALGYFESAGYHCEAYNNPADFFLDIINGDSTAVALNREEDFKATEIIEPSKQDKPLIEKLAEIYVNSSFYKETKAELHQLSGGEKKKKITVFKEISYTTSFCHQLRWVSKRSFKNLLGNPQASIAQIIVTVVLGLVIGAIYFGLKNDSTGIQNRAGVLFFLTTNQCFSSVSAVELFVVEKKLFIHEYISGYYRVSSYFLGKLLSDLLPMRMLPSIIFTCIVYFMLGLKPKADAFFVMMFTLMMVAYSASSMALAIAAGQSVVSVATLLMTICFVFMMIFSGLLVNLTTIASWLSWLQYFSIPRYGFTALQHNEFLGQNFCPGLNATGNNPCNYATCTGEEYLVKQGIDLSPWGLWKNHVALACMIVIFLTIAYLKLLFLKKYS
Description: (§1) • A. Three different cell lines have been employed: MDCK-P-gp (fluorescent probe Calcein-AM), MDCK-BCRP (florescent probe Rhodamine) and MDCK-MRP1 (fluorescent probe Calcein-AM). These cells overexpress stably human P-gp or BCRP or MRP1. • i.

P-gp [2] = target: T2, P-gp (Homo sapiens, UniProt P08183); test: cell-based
T2 sequence (P08183 whole entry): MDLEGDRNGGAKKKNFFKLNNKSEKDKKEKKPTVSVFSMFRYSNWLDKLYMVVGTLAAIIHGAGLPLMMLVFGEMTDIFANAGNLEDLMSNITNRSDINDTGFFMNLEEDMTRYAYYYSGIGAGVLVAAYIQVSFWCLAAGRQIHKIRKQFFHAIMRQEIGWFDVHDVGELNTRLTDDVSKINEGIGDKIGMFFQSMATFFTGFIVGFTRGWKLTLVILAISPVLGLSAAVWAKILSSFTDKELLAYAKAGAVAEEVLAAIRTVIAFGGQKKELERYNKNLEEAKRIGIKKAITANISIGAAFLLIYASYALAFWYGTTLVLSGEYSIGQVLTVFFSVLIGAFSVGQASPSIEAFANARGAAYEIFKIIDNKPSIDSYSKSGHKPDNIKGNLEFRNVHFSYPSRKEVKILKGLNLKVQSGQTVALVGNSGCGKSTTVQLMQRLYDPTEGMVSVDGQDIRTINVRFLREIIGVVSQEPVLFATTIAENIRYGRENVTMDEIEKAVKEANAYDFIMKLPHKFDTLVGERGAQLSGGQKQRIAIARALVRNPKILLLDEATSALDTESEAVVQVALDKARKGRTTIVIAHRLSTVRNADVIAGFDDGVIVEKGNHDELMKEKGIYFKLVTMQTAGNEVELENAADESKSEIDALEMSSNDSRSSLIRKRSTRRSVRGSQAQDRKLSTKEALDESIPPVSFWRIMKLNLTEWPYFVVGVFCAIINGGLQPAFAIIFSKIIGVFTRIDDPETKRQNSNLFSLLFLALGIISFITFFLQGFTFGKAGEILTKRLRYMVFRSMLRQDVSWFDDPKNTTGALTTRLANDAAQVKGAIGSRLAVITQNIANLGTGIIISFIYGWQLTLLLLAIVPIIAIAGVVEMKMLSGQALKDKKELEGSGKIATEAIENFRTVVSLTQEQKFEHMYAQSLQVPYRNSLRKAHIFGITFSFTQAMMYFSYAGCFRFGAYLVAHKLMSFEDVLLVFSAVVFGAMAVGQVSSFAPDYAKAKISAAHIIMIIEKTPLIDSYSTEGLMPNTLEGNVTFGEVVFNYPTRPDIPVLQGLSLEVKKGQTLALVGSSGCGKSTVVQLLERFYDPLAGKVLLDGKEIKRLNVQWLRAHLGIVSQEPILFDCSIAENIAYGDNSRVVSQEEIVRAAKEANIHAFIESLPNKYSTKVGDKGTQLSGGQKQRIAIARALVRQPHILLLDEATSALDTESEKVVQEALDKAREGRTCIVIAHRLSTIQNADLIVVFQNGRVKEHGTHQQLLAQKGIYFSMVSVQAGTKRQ
Description: as §1

P-gp [3] = target: T2, P-gp; test: ATP-ase cell depletion (luminescence) in MDCK-MDR1 cells; format: cell-based; set-up: expressed in transfected cells; host or cells: MDCK-P-gp (MDCK cells stably overexpressing human P-gp); settings: at 1 μM, 2 h
Procedure: In order to establish the intrinsic mechanism of compound of Formula la in […] has been defined if it was able to deplete ATP. Compound able to deplete ATP can be considered P-gp substrate while ligand unable to deplete ATP is considered P-gp inhibitor.
The MDCK-MDR1 cells were seeded into 96-well microplate in 100 μL of complete medium at a density 2×10^4 cells/well. The plate was incubated overnight in a humidified atmosphere 5% CO2 at 37° C. The medium was removed and 100 μL of complete medium in the presence or absence of different concentrations of compound of Formula 1a was added. The plate was incubated for 2 h in a humidified atmosphere 5% CO2 at 37° C. Fifty microlitres of mammalian cell lysis solution was added to all wells and the plate was shaken for 5 min in an orbital shaker. Fifty microlitres of substrate solution was added to all wells and the plate was shaken for 5 min in an orbital shaker. The plate was dark adapted for 10 min and the luminescence was measured.

[4] = Metabolic stability by rat liver microsomes; format: in vitro ADME
Procedure: Metabolic stability of compound of Formula la was evaluated by incubating test compounds with rat liver microsomes and monitoring parent disappearance within 30 mins using HPLC.
• Column: KINE IEX-C18 • Column temperature: 40° C. • Mobile phase: Gradient. A was 0.1% formic acid in water. B was MeCN. A:B 95:5 to 30:70 over 10 min, to 20:80 over 5 min. • Flow rate: 0.5 ml/min • Injection volume: 50 μL
FIG. 5 illustrated a Chromatogram of Formula la incubated with microsomes fraction only without NADPH regenerating system wherein 489.88 mAU*s represents ligand concentration after incubation Ccontrol. FIG. 6 illustrates a Chromatogram of compound of Formula 1a incubated in the presence of microsomes and NADPH regenerating system wherein 429.56 mAU*s represents ligand concentration Cparent.

[5] = Metabolites (human microsomes), unchanged form; format: in vitro ADME
Description: Metabolites (Human Microsomes)

[6] = Protein Plasma Binding (PPB) assay (TRANSIL); format: in vitro ADME, human; settings: human serum albumin and human α1 acid glycoprotein (TRANSIL); for fraction unbound: estimation based on human serum albumin and human α1 acid glycoprotein, read-out: fb (fraction bound to plasma proteins) (converted); for Kd: human, read-out: kD (dissociation constant, plasma protein binding)
Procedure: (§2) Plasma protein binding is measured in terms of the dissociation constant KD: KD=[compound 1a] [P]/[compound 1a-P], wherein [compound 1a-P] is the concentration of compound of Formula 1a bound to the protein P and where [compound 1a] denotes the free concentration of compound of Formula 1a and [P] denotes the free concentration of protein. […] This means there is high free unbound radiotracer available to bind with the target protein for detection.
(§3) fb represents an estimation of the fraction bound to plasma proteins based on human serum albumin and human α1 acid glycoprotein. Binding to other low abundance plasma proteins like lipoproteins, transcortin, and sex hormone binding protein is not considered.
(§4) The TRANSIL Quality Index (TQI) is based on five independent measures derived from the data analysis. For each individual measure a partial quality score on a scale between 0 and 10 is attributed to the estimate. 0 represents lowest quality, while 10 represents highest quality. The final quality index is a weighted average of the partial quality scores.
(§5) Plasma protein binding is measured in terms of the dissociation constant KD: KD=[TQD]

[7] = test system: plasma proteins based on human serum albumin and human α1 acid glycoprotein; test: Protein Plasma Binding (PPB) assay (TRANSIL); format: in vitro ADME; settings: read-out: kD (dissociation constant, plasma protein binding)
Procedure: as §2, §3, §4, §5

[8] = Everted gut sac: crossing to mucosal compartment and stability; format: in vitro ADME
Procedure: The compound of Formula la has been inserted in serosal compartment of […] and for 120 mins has been tested: • 1. The concentration in mucosal compartment • 2. The stability in serosal/mucosal compartment

MRP1 = target: T3, MRP1 (Homo sapiens, UniProt P33527); test: Activity in MDCK-MRP1 cells, fluorescent probe Calcein-AM; format: cell-based
T3 construct: expressed in transfected cells; host or cells: MDCK-MRP1
T3 sequence (P33527 whole entry): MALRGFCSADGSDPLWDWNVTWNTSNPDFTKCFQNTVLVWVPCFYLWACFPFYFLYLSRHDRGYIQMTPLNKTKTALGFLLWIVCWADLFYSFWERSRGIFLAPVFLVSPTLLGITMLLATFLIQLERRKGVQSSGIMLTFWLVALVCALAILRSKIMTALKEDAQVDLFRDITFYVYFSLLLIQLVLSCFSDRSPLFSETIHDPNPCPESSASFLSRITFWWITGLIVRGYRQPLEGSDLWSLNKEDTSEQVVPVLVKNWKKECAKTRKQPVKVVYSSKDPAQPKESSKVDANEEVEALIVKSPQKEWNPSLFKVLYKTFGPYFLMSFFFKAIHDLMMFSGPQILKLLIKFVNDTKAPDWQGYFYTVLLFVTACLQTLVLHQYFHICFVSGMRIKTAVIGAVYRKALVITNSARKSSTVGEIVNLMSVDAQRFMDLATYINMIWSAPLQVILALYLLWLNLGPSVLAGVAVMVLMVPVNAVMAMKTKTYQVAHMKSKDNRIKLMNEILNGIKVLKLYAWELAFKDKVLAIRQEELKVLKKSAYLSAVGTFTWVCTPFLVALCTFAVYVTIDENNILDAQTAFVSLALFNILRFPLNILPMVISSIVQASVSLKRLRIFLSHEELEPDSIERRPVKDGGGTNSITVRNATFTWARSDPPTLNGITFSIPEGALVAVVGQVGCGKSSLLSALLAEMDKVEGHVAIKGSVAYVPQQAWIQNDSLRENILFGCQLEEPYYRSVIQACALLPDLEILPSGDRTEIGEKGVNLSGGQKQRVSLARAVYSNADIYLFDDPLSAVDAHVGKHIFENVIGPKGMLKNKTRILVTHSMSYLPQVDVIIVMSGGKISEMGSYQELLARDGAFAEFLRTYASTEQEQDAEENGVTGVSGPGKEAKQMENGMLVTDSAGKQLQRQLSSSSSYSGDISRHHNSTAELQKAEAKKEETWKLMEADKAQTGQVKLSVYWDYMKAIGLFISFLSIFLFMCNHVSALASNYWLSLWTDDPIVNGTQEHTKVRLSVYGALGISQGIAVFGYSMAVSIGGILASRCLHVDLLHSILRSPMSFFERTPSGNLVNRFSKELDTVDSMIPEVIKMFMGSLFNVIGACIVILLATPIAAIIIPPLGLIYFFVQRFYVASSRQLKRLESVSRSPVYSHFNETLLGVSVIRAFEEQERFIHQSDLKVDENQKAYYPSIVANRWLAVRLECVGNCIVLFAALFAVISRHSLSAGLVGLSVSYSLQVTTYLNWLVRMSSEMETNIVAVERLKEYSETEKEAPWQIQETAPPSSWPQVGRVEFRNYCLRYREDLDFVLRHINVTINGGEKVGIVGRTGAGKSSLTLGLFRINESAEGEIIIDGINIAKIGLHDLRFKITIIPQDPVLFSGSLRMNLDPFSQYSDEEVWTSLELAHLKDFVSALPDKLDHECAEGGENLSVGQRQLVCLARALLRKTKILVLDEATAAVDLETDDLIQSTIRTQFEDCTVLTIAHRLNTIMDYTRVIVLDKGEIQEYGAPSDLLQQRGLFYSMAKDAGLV
Description: as §1

P-gp [9] = test: In vivo bio-distribution, microPET/CT brain uptake; set-up: species or system mice
Procedure: A set of wild type mice subjects were injected with compound of formula 1b (i.e. [^18F]-labeled compound of formula 1a). Immediately after injection of the tracer compound, scanning was performed on the subject using a microPET/CT system. The study was conducted in deep anaesthesia (oxygen/1.5-2 isoflurane w/o drug-induction) and the animals were treated by adhering to regulatory, ethical and Animal Welfare guidelines subsequent to obtaining approvals. […] The extraction remained constant for the duration of the study and was indicative of a possible selective binding to brain structures.

P-gp [10] = target: T2, P-gp; set-up: expressed in transfected cells; host or cells: MDCK-P-gp (MDCK cells stably overexpressing human P-gp); settings: literature value; read-out: EC50 as reported in Kazunori Kawamura, et al.; cited from earlier work

EC50 (BCRP) [µM] | P-gp EC50 (P-gp [2]) | ATP-ase cell depletion (P-gp [3]) [%] | fraction unbound [6] | Kd [6] [µM] | EC50 (MRP1) [µM] | Compound | Cytotoxicity (MTT) (MDCK-MDR1; 24 h) [%] | Cytotoxicity (MTT) (MDCK-MDR1; 48 h) [%] | other results
> 0.5 | 8,0±0.2 nM | 20 | 0.539 | 717 | > 0.5 | COc1cc(NC(=O)c2cnc3ccccc3c2)c(C(=O)Nc2ccc(CCN3CCc4cc(OCCF)c(OC)cc4C3)cc2)cc1OC [Formula 1a, N-(2-((4-(2-(6-(2-fluoroethoxy)-7-methoxy-3,4-dihydroisoquinolin-2(1H)-yl)ethyl)phenyl)carbamoyl)-4,5-dimethoxyphenyl)quinoline-3-carboxamide] | 5 | 15 | efflux ratio at 120 min (P-gp [1]): 16 ± 0.7; EC50 (P-gp [2]): 0.008 µM; % remaining at 30 min [4]: 88%; Unchanged form (%) ([5]; after 30 min): 91%; Unchanged form (%) ([5]; after 60 min): 85%; Kd [7]: 717 µM; Stability in serosal compartment ([8]; after 60 min): 83%; Stability in serosal compartment ([8]; after 120 min): 75%; Crossing into the mucosal compartment ([8]; inserted in serosal compartment, 120 mins): unable to cross into the mucosal compartment
 |  |  |  |  |  | COc1cc(NC(=O)c2cnc3ccccc3c2)c(C(=O)Nc2ccc(CCN3CCc4cc(OCC[18F])c(OC)cc4C3)cc2)cc1OC [Formula 1b] |  |  | Brain uptake (microPET) (P-gp [9]; P-gp knock-out mice (MDR 1a/b −/−)): same reduction of uptake at brain level; Brain uptake (microPET) (P-gp [9]; wild type mice, co-injection of tariquidar): strongly reduced; Brain uptake (microPET) (P-gp [9]; wild type mice, tracer alone): binding of radiolabeled compound of formula 1b at brain level
> 0.08 | 4,0±0.2 nM | 30 | 0.095 | 64.7 | > 0.5 | COc1cc2c(cc1OC)CN(CCc1ccc(NC(=O)c3cc(OC)c(OC)cc3NC(=O)c3cnc4ccccc4c3)cc1)CC2 [Tariquidar, reference compound] | 8 | 19 | EC50 (P-gp [10]): 0.024 µM
